In publication PMC8119466, “A screen of FDA-approved drugs identifies inhibitors of protein tyrosine phosphatase 4A3 (PTP4A3 or PRL-3)” (Scientific Reports, 2021):
Where a name gives a salt, the structure may show the parent alone. Read-outs that look alike come from different tables or passages of the source.

Columns and labels:
Type in all cases: biochemical
[1] = target: T1, recombinant PRL-3 (Homo sapiens, UniProt O75365); test: In vitro phosphatase assay (DiFMUP hydrolysis), PRL-3; note: test concentration or dose not given here
T1 construct: 6xHis (N, cleaved yes); made in house; host or cells: E. coli One Shot BL21 Star

[2] = target: T2, recombinant PRL-2 (Homo sapiens, UniProt Q12974); test: In vitro phosphatase assay (DiFMUP hydrolysis), PRL-2;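 note: PRL-2 activity read as DiFMUP hydrolysis after 20 min at room temperature with drug, enzyme first pre-reduced at 4 °C for 20 min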
T2 construct: 6xHis (N, cleaved yes); made in house; host or cells: E. coli One Shot BL21 Star
T2 sequence (Q12974 1-167): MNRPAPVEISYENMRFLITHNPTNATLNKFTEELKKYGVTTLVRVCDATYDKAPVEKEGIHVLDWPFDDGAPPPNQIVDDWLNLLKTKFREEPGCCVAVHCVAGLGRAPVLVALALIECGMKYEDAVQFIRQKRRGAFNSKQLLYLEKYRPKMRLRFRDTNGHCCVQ

[3] = target: T3, recombinant PRL-1 (Homo sapiens, UniProt Q93096); test: In vitro phosphatase assay (DiFMUP hydrolysis), PRL-1; note: test concentration or dose not given here
T3 construct: 6xHis (N, cleaved yes); made in house; host or cells: E. coli One Shot BL21 Star
T3 sequence (Q93096 1-173): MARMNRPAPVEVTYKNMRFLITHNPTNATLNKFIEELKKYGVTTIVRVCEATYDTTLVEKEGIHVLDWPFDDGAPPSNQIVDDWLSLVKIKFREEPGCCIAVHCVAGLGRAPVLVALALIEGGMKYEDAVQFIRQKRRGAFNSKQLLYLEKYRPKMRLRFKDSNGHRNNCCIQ

[4] = FDA-approved drug screen, compared to DMSO

T1 sequence (O75365 whole entry): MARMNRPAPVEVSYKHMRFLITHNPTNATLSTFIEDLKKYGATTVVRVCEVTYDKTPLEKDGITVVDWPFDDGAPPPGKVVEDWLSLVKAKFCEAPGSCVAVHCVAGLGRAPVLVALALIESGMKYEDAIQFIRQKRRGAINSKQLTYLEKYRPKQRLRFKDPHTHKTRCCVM

| SMILES | % Phosphatase Activity (compared to DMSO) PRL-3 [1, 4] | % Phosphatase Activity (compared to DMSO) PRL-2 [2, 4] | % Phosphatase Activity (compared to DMSO) PRL-1 [3, 4] | % Phosphatase Activity (compared to DMSO) PRL-3 [1] | % Phosphatase Activity (compared to DMSO) PRL-2 [2] | % Phosphatase Activity (compared to DMSO) PRL-1 [3] |
| --- | --- | --- | --- | --- | --- | --- |
| CCOC(=O)c1ncn2c1CN(C)C(=O)c1cc(F)ccc1-2 [Flumazenil] | 69% | 102% | 106% |  |  |  |
| CC1CCc2cc(F)cc3c(=O)c(C(=O)O)cn1c23 (stereo not drawn) [Flumequine] | 96% | 112% | 122% |  |  |  |
| Cl.Cl.Fc1ccc(C(c2ccc(F)cc2)N2CCN(C/C=C/c3ccccc3)CC2)cc1 [Flunarizine 2HCl] | 101% | 107% | 111% |  |  |  |
| CNC[C@H](O)[C@@H](O)[C@H](O)[C@H](O)CO.Cc1c(Nc2ncccc2C(=O)O)cccc1C(F)(F)F [Flunixin Meglumin] | 80% | 88% | 94% |  |  |  |
| CC1(C)O[C@@H]2C[C@H]3[C@@H]4C[C@H](F)C5=CC(=O)C=C[C@]5(C)[C@@]4(F)[C@@H](O)C[C@]3(C)[C@]2(C(=O)CO)O1 [Fluocinolone Acetonide] | 82% | 111% | 110% |  |  |  |
| CC(=O)OCC(=O)[C@@]12OC(C)(C)O[C@@H]1C[C@H]1[C@@H]3C[C@H](F)C4=CC(=O)C=C[C@]4(C)[C@@]3(F)[C@@H](O)C[C@@]12C [Fluocinonide] | 89% | 92% | 91% |  |  |  |
| CC(=O)O[C@]1(C(C)=O)CC[C@H]2[C@@H]3C[C@H](C)C4=CC(=O)C=C[C@]4(C)[C@@]3(F)[C@@H](O)C[C@@]21C [Fluorometholone Acetate] | 79% | 96% | 91% |  |  |  |
| CNCCC(Oc1ccc(C(F)(F)F)cc1)c1ccccc1.Cl (stereo not drawn) [Fluoxetine HCl] | 68% | 105% | 93% |  |  |  |
| C[C@]1(O)CC[C@H]2[C@@H]3CCC4=CC(=O)CC[C@]4(C)[C@@]3(F)[C@@H](O)C[C@@]21C [Fluoxymesterone] |  |  |  | 76% | 102% | 90% |
| Cl.Cl.OCCN1CCN(CCCN2c3ccccc3Sc3ccc(C(F)(F)F)cc32)CC1 [Fluphenazine (dihydrochloride)] | 88% | 101% | 94% |  |  |  |
| CC(C(=O)O)c1ccc(-c2ccccc2)c(F)c1 (stereo not drawn) [Flurbiprofen] | 73% | 89% | 97% |  |  |  |
| CC(C)C(=O)Nc1ccc([N+](=O)[O-])c(C(F)(F)F)c1 [Flutamide] | 77% | 76% | 81% |  |  |  |
| CCC(=O)O[C@]1(C(=O)SCF)[C@H](C)C[C@H]2[C@@H]3C[C@H](F)C4=CC(=O)C=C[C@]4(C)[C@@]3(F)[C@@H](O)C[C@@]21C [Fluticasone propionate] | 90% | 92% | 103% |  |  |  |
| CC(C)n1c(/C=C/C(O)CC(O)CC(=O)O)c(-c2ccc(F)cc2)c2ccccc21 (stereo not drawn) [Fluvastatin Sodium] | 89% | 95% | 81% |  |  |  |
| COCCCC/C(=N\OCCN)c1ccc(C(F)(F)F)cc1 [Fluvoxamine maleate] | 75% | 100% | 88% |  |  |  |
| Nc1nc(=O)c2nc(CNc3ccc(C(=O)N[C@@H](CCC(=O)O)C(=O)O)cc3)cnc2[nH]1 [Folic acid] | 92% | 112% | 100% |  |  |  |
